Data: patent US6355823B1 (Board of Regents, The University of Texas System, priority 1999, dated 2002)
Values joined by “and” are separate entries in the source; they are usually repeats but may differ in a detail not shown here. Equal values may be shown once. Read-outs that look alike come from different tables or passages of the source.

Key:
[1] = system: rats with normal renal function; test: Effect of 2′-PP on rat survival, serum phosphate and serum calcium (Table 1 study); format: in vivo; details: for Serum calcium / Serum phosphate: seven days after beginning treatment
Experimental: (§1) Ten rats with normal renal function were treated with varied amounts of [^3H]2′-PP by gavage for seven days. The 2′-PP was given once/day in a solution containing 270 mM sucrose and 10 mM Tris-Cl pH 7.4. Blood was withdrawn 1, 4, and 7 days from the start of the treatment and analyzed for serum phosphate and serum calcium, with the results shown in Table 1. A second, one-week trial was performed adding 2′-PP to the drinking water. Blood was withdrawn at 1, 4 and 7 days and assayed for calcium and phosphate. Dietary phosphorus was increased from 0.9% to 5% for one week, and the experiment repeated at the elevated dietary phosphorus with 2′-PP added to the drinking water for an additional two weeks. The amount of radioactivity in the urine and stool as examined. After two weeks, the animals were sacrificed, and the kidney and liver were examined for radioactivity.
Serum calcium levels (2.1 mM±0.18 mM) remained unchanged (7% fluctuation compared to 3% error in duplicate determinations) on both the normal and high phosphate diets irrespective of 2′-PP concentration. […] Serum phosphate was 2.5±0.2 mM prior to administration of 2′-PP (n=12). […] Rats on the high phosphate diet required higher 2′-PP concentrations to achieve the same results, however, similar decreases in serum phosphate were seen. […] At 10 μM 2′-PP, rats on the high phosphorus diet had serum phosphate levels below that seen in untreated rats on the normal phosphate diet.
The values given are measured seven days after beginning treatment with the indicated 2′-PP concentration. Results are from duplicate rats and assayed in triplicate.

[2] = Radioactivity in urine, stool, kidney and liver after [3H]2′-PP; format: in vivo, rat
Experimental: as §1
After 4 weeks on 2′-PP, the rats were sacrificed and their kidneys and liver examined for radioactivity. […] A crude estimate of 2′-PP turnover time was calculated from the amount of radioactivity in the stool after administration of [^3H]2′-PP was discontinued; and the 2′-PP half-life was estimated as 12±1 hr.

[3] = system: rats with normal renal function; test: Second 2-week study of 2′-PP in drinking water (FIG. 10, 11); format: in vivo, rat
Experimental: Serum phosphate again decreased in a 2′-PP concentration-dependent manner immediately after its addition to the rats' drinking water. After 2 weeks on 2′-PP, serum phosphate was reduced to between 1.8 mM on 1 μM 2′-PP and 1.2 mM at 25 μM 2′-PP. […] This decrease in serum calcium may be related to a slight volume expansion. The rats receiving 5 μM or higher concentrations of 2′-PP drank 2-4 times more water than normal for the first 4 days of the study. After the first 4 days, water consumption returned to normal.

[4] = biological target: T1, intestinal Na/phosphate co-transporter (Oryctolagus cuniculus, UniProt G1SIP4); test: Na-dependent [32P]phosphate uptake by rabbit intestinal brush border membrane (BBM) vesicles; details: for type of inhibition of Na-dependent phosphate uptake: Dixon plot, with respect to phosphate
T1 sequence (G1SIP4 1-715): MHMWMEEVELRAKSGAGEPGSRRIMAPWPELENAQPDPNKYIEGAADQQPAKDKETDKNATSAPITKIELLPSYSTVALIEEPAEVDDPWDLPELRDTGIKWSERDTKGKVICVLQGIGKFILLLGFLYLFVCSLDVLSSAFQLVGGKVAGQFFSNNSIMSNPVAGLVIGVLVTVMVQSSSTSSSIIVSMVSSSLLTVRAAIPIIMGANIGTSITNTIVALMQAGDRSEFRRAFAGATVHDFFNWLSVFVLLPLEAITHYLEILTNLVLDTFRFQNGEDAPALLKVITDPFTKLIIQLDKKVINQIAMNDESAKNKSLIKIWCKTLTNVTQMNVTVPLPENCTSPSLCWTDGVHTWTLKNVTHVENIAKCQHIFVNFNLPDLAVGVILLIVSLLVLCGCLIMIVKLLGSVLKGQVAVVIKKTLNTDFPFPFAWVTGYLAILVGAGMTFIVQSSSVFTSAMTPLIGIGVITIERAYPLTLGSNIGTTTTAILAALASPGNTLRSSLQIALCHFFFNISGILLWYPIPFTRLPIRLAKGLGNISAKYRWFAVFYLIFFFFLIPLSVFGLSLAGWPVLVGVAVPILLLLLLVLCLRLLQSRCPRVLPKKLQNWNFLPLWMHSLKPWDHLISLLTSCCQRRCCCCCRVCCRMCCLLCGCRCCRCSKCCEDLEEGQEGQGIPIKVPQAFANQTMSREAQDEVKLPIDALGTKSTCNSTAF

[5] = biological target: intestinal brush border membrane alkaline phosphatase (Oryctolagus cuniculus, UniProt G1SXE4); test: biochemical; format: biochemical
Sequence of intestinal brush border membrane alkaline phosphatase (G1SXE4 25-504): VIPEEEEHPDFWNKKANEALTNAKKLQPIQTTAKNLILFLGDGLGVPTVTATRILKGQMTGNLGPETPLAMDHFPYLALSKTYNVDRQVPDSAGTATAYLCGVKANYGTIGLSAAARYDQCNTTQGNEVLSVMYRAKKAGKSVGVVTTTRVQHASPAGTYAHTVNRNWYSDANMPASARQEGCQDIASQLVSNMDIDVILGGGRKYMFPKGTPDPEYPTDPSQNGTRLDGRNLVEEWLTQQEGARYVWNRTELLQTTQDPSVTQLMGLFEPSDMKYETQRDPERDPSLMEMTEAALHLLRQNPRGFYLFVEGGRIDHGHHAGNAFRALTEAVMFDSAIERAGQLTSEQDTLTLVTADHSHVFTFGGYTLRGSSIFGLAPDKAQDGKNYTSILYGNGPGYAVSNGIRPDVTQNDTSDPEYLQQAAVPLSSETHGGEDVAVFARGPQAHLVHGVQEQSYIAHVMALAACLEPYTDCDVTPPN

[6] = system: rats on a 0.9% phosphorus diet; test: Serum phosphate after withdrawal of 2′-PP (in vivo half-life); design: species or system rat
Experimental: Rats on a 0.9% phosphorus diet were given 10 μM [^3H]2′-PP in their water for 2 weeks. Serum phosphate and calcium were determined by spectrophotometric assays. Following the experimental period, 2′-PP was removed from the water, and the stool was examined for radioactivity at days 1, 3, 5 and 8, and serum phosphate was examined.
The apparent half-time to return to normal serum phosphate levels was approximately 3 days. […] During this maturation period, crypt cells express the intestinal brush border membrane Na/phosphate co-transporter.

[7] = biological target: T2, intestinal BBM Na/phosphate co-transporter (Oryctolagus cuniculus, UniProt G1SIP4)
T2 sequence (G1SIP4 25-715): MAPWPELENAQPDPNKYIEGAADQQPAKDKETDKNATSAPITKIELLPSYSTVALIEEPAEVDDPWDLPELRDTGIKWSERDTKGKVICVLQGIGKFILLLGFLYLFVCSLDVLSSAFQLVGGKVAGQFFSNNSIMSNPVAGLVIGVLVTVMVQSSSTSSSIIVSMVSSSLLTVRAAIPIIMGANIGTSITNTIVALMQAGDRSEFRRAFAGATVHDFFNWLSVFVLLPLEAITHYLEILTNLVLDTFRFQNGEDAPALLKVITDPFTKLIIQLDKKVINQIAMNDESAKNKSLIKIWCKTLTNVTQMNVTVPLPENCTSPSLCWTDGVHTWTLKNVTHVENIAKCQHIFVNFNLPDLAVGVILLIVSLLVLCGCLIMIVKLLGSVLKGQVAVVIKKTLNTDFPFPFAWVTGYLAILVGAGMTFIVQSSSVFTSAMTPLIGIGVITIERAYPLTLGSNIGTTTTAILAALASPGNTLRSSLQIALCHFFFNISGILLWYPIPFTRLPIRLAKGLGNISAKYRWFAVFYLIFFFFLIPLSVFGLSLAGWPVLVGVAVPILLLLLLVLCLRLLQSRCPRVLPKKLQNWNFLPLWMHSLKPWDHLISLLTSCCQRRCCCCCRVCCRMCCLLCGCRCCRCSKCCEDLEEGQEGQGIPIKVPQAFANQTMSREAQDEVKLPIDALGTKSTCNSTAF

[8] = system: intestinal Na/phosphate co-transporter; test: [3H]AZPP photolabeling of Ca-BBM protein, papain digest and immunoprecipitation; format: binding
Experimental: Ca-BBM protein (1.8 nmoles 2′-PP binding sites as determined from 9 pmoles [^3H]2′-PP bound/mg protein) was labeled with [^3H]AZPP (1 minute incubation with 10 μM [^3H]AZPP at 4° C. in 150 mM NaCl and 10 mM sodium borate pH 7, followed by a 1 minute exposure to visible light). Following centrifugation to remove excess label, BBM protein was digested with papain as previously described in Peerce, B. E. (1995) Biochim. Biophys. Acta. 1239: 11-21 and Peerce, B. E.; Cedilote, M. and Clarke, R. D. (1995) Biochim. Biophys. Acta. 1239: 1-10, and resolved into membrane-retained and soluble peptides. 95% of the radioactivity was in the membrane-retained fraction. SDS-solubilization of the membrane-retained fraction released 85% of the radioactivity.
A polyclonal antibody to the intestinal Na/phosphate co-transporter (KL9.2) developed in the laboratory was used to immunoprecipitate CHAPS-solubilized [^3H]AZPP-labeled Ca-BBM protein. The complex was electrophoresed by SDS-PAGE and stained with Coomassie blue, according to the method of Laemmli, U.K 1970 Nature (Lond.) 227: 680-685. A track was cut into 2 mm slices, and the slices counted for tritium. […] The residual 12%±2%, n=3, of the applied label appeared to be non-specifically associated with lipid (chloroform:methanol extracted).

[9] = High Phosphate Diet, [2′-PP] 1 μM
[10] = High Phosphate Diet, [2′-PP] 2 μM
[11] = High Phosphate Diet, [2′-PP] 5 μM
[12] = High Phosphate Diet, [2′-PP] 10 μM
[13] = High Phosphate Diet, [2′-PP] 25 μM
[14] = Normal Phosphate Diet, [2′-PP] 1 μM
[15] = Normal Phosphate Diet, [2′-PP] 2 μM
[16] = Normal Phosphate Diet, [2′-PP] 5 μM
[17] = Normal Phosphate Diet, [2′-PP] 10 μM
[18] = Normal Phosphate Diet, [2′-PP] 25 μM
[19] = four weeks of treatment with 2′-PP
[20] = 10 μM [3H]2′-PP in water for 2 weeks, then removed

O=C(CCc1ccc(O)cc1)c1c(O)cc(O)cc1OP(=O)(O)O
Serum calcium [1, 9]: 2.1 ± 0.1 mM | Serum phosphate [1, 9]: 4.4 ± 0.2 mM | Serum calcium [1, 10]: 2.1 ± 0.1 mM | Serum phosphate [1, 10]: 3.3 ± 0.2 mM | Serum calcium [1, 11]: 2.1 ± 0.1 mM | Serum phosphate [1, 11]: 2.6 ± 0.1 mM | Serum calcium [1, 12]: 2.1 ± 0.1 mM | Serum phosphate [1, 12]: 2.0 ± 0.04 mM | Serum calcium [1, 13]: 2.0 ± 0.1 mM | Serum phosphate [1, 13]: 1.8 ± 0.08 mM | Serum calcium [1, 14]: 2.1 ± 0.08 mM | Serum phosphate [1, 14]: 2.5 ± 0.1 mM | Serum calcium [1, 15]: 2.1 ± 0.1 mM | Serum phosphate [1, 15]: 2.2 mM and 2.2 ± 0.1 mM | Serum calcium [1, 16]: 2.1 ± 0.05 mM | Serum phosphate [1, 16]: 2.0 ± 0.07 mM | Serum calcium [1, 17]: 2.0 ± 0.1 mM | Serum phosphate [1, 17]: 1.8 ± 0.1 mM | Serum calcium [1, 18]: 2.1 ± 0.1 mM | Serum phosphate [1, 18]: 1.4 mM and 1.4 ± 0.1 mM | change in weight [1, 19]: nor did they suffer any measurable change in weight | rat survival [1, 19]: none of the rats died | Serum calcium levels (remained unchanged) ([1]; normal and high phosphate diets, irrespective of 2′-PP concentration): 2.1 mM | radioactivity in the urine, kidney, or the liver ([2]; after 4 weeks on [3H]2′-PP): No measurable radioactivity | permeation across the intestinal membrane ([2]; at the concentrations tested): relatively impermeant | 2′-PP half-life (turnover time) ([2]; crude estimate from radioactivity in the stool after [3H]2′-PP was discontinued): 12 ± 1 h | water consumption relative to normal ([3]; 5 μM or higher concentrations of 2′-PP, first 4 days of the study): 2-4 times | Serum calcium ([3]; 2′-PP concentrations of 5 μM and higher): significant decrease | Serum phosphate ([3]; after 2 weeks at 25 μM 2′-PP in drinking water): 1.2 mM | Serum phosphate ([3]; after 2 weeks on 1 μM 2′-PP in drinking water): 1.8 mM | Ki [4]: 0.59 ± 0.08 µM | type of inhibition of Na-dependent phosphate uptake [4]: competitive with respect to phosphate | change in apparent k0.5 for inhibition of Na-dependent [32P]phosphate uptake after pre-incubation with Ca-BBM ([4]; incubations of up to 10 minutes at 23° C.): no measurable change | substrate of alkaline / apical membrane phosphatase [5]: substrate of alkaline phosphatase | type of inhibition of alkaline phosphatase [5]: competitive inhibitor | inhibition at 50 µM ([5]; read-out: inhibition of alkaline phosphatase): 33% | apparent half-time to return to normal serum phosphate levels [6, 20]: approximately 3 days | time for serum phosphate to return to normal (control) level after withdrawal [6, 20]: five | inhibition at 10 µM ([6]; Rattus norvegicus, 10 μM 2′-PP administered daily, read-out: inhibition of the Na/phosphate co-transporter in vivo): ~100% | 2′-PP bound (kinetic analysis of trace B) [7]: 8.5 pmoles 2′-PP bound/mg protein | 2′-PP bound at infinite osmotic strength [7]: 8±0.6 pmoles of 2′-PP bound/mg protein | 2′-PP bound in the absence of Na [7]: 0.12±0.005 pmoles 2′-PP bound/mg protein | Hill coefficient nH of Na effect on 2′-PP binding [7]: 1.9±0.25 | [3H]2′-PP binding sites [7]: 9 pmoles [^3H]2′-PP bound/mg protein | apparent K0.5 for Na (Na concentration at 50% 2′-PP bound) [7]: 23 ± 3 mM | transport by the Na/phosphate co-transporter [7]: not transported

[N-]=[N+]=Nc1cc(CCC(=O)c2c(O)cc(OP(=O)(O)O)cc2O)ccc1O [AZPP, 1-[2,6-dihydroxy-4-(phosphonooxy)phenyl]-3-(3-azido-4-hydroxyphenyl)-1-propanone]
labeled species on urea gel electrophoresis after papain digestion of SDS soluble protein [8]: single 24 kDa polypeptide | radioactivity released by SDS-solubilization of the membrane-retained fraction [8]: 85% | radioactivity in the membrane-retained fraction after papain digestion ([8]; 10 μM [3H]AZPP, 4° C., 150 mM NaCl, visible light): 95% | labeled species on SDS-PAGE after immunoprecipitation with antibody KL9.2 ([8]; CHAPS-solubilized labeled Ca-BBM protein): single 120-kDa polypeptide | residual applied label non-specifically associated with lipid ([8]; chloroform:methanol extracted, n=3): 12%

O=C(CCc1ccc(O)cc1)c1c(O)cc(NP(=O)(O)O)cc1O [NHPP]
type of inhibition of Na-dependent phosphate uptake [4]: competitive inhibitor | Ki ([4]; read-out: K1 (Kl) for inhibition of Na-dependent phosphate uptake, from replot of Dixon plot slope, phosphate 50, 100, 250 μM, n=3): 6.9 ± 1 µM

Phosphate [reference compound]
IC50 ([7]; read-out: concentration inhibiting 50% of Na-dependent 2′-PP bound to Ca-BBM): 105 ± 15 µM
